Converted amounts (≈) assume the structure as drawn. “And” between values parts separate entries of the source, which are not always exact repeats. Equal entries are not always repeated.
What was measured:
wt SpsB [1] = target: T1, wt SpsB (Staphylococcus aureus, UniProt P0A070); assay: FRET-based signal peptidase assay with membrane-bound SpsB (wt); assay type: biochemical, S. aureus
T1 construct: recombinantly expressed full-length S. aureus SpsB (wt) or mutants; made in house; host or cells: E. coli BL21(DE3)pLysS, membrane fraction
Experimental: For preparation of E. coli membrane fractions harboring overexpressed S. aureus SpsB, E. coli BL21(DE3) pLysS cells harboring pET-55-DEST-fl-SpsB or respective mutant plasmids (F67A, Y75A, F158A, Q165A, F67A-Y75A, F67A-F158A, Y75A-F158A, F67A-Y75A-F158A) were grown in LB medium (supplemented with Ampicillin (100 µg/mL) and Chloramphenicol (34 µg/mL)) at 37°C (200 rpm) to OD600 ≈ 0.6 and protein overexpression was induced by the addition of isopropyl-1-thio-β-galactopyranoside (IPTG, 0.5 mM). After incubation (22 °C, 200 rpm, 3 h), cells were harvested by centrifugation (6000 × g, 4 °C, 10 min) and subsequently washed with PBS. The cell pellet was resuspended in 5 mL Tris-HCl buffer (50 mM, pH = 7.5) and lysed using a bead beater homogenizer (3 cycles: 5500 rpm for 45 s, 30 s cooling; Precellys Ceramic Kit CK01L, 7.0 mL tubes; Precellys 24 Homogenizer, Bertin Technologies). The lysate was centrifuged (12,000 × g, 4 °C, 10 min) to remove intact cells and debris. Membranes were collected from supernatant (39,000 × g, 4 °C, 75 min) and resuspended in ice-cold sodium phosphate buffer (50 mM, pH 7.5). Protein concentration was measured using the Pierce BCA Protein assay kit (Thermo Fisher Scientific, Pierce Biotechnology) and snap-frozen aliquots were stored at −80 °C.
Signal cleavage activities of recombinantly expressed full-length S. aureus SpsB (wt) or mutants (F67A, Y75A, F158A, Q165A, F67A-Y75A, F67A-F158A, Y75A-F158A, F67A-Y75A-F158A) in E. coli membranes were measured using a Förster Resonance Energy Transfer (FRET) assay as previously described[20],[36].
A synthetic peptide substrate based on SceD modified by 4-(4- dimethylaminophenylazo)benzoic (DABCYL) acid and 5-((2-aminoethyl)amino)-1- naphthalenesulfonic acid (EDANS) was used (DABCYL-[…]-EDANS, AnaSpec) as FRET substrate. Assays were performed with overexpressed wildtype SpsB (wt) or mutant (F67A, Y75A, F158A, Q165A, F67A-Y75A, F67A-F158A, Y75A-F158A, F67A-Y75A-F158A) in E. coli membranes. As controls for background activity, respective E. coli membranes without IPTG induction were used (see Experimental procedure “Preparation of E. coli membrane (control) fractions. Membranes containing recombinant wildtype SpsB or mutant (50 µg/mL membrane concentration, 100 µL/well final volume, sodium phosphate buffer, 50 mM, pH 7.5, addition of detergent if indicated; final concentrations in buffer: 0.1% CHAPS, 0.001% NP-40 or 0.1% Tween) were pre-treated with PK150, Arylomycin A4 or DMSO as a control (final concentration 1%) at 37 °C for 5 min. After addition of FRET substrate (10 µM final substrate concentration; final DMF concentration from substrate stock 1%), fluorescence turnover was monitored by an Infinite™ M Nano Tecan 200Pro reader (340 nm excitation and 510 nm emission wavelengths, fluorescence top reading mode) at 37 °C for at least 2 h.
The assay was performed in technical triplicates for at least three biologically independent experiments (n ≥ 3). Significance of cleavage activity was determined via a two-tailed Students t-test for comparison of membranes treated with DMSO to PK150.

SpsB Q165A mutant = target: T2, SpsB Q165A mutant (Staphylococcus aureus, UniProt P0A070, Q165A); assay: FRET-based signal peptidase assay with membrane-bound SpsB, Q165A mutant; assay type: biochemical, S. aureus; conditions: 10 µM; relative to DMSO
T2 construct: recombinantly expressed full-length S. aureus SpsB (wt) or mutants; made in house; host or cells: E. coli BL21(DE3)pLysS, membrane fraction
T2 sequence (P0A070 1-191 Q165A): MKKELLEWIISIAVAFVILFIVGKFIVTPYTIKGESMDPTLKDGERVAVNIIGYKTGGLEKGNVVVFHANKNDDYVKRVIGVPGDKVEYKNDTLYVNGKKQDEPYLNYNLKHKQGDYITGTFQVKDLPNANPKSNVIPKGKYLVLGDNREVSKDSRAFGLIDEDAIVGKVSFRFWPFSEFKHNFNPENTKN
Experimental: Cloning of full-length SpsB (fl-SpsB) was performed using the Invitrogen Gateway Technology in previous works by Le et al.. fl-SpsB was cloned into the destination vector pET-55-DEST (Novagen) and transformed into chemically competent E. coli BL21(DE3)pLysS cells (Promega) to prevent leaky protein overexpression. Plasmid DNA of wildtype SpsB pET-55-DEST-fl-SpsB was purified using a plasmid Miniprep Kit (peqGOLD Plasmid Miniprep Kit II, VWR Peqlab) according to the manufacturer’s instructions and used as template for all single point mutations (F67A, Y75A, F158A, Q165A). […]
For preparation of E. coli membrane fractions harboring overexpressed S. aureus SpsB, E. coli BL21(DE3) pLysS cells harboring pET-55-DEST-fl-SpsB or respective mutant plasmids (F67A, Y75A, F158A, Q165A, F67A-Y75A, F67A-F158A, Y75A-F158A, F67A-Y75A-F158A) were grown in LB medium (supplemented with Ampicillin (100 µg/mL) and Chloramphenicol (34 µg/mL)) at 37°C (200 rpm) to OD600 ≈ 0.6 and protein overexpression was induced by the addition of isopropyl-1-thio-β-galactopyranoside (IPTG, 0.5 mM). […] Protein concentration was measured using the Pierce BCA Protein assay kit (Thermo Fisher Scientific, Pierce Biotechnology) and snap-frozen aliquots were stored at −80 °C. […]

wt SpsB [2] = target: T1, wt SpsB; conditions: cited from earlier work
S. aureus NCTC 8325 = tested on: S. aureus NCTC 8325; set-up: method as in Le et al., Nat Chem. 2020; conditions: ref Le et al., Nat Chem. 2020; cited from earlier work

| SMILES | allosteric stimulation of SpsB activity (wt SpsB [1]; 10 µM in E. coli induced SpsB membranes) | elevated activity in wildtype SpsB (wt SpsB [1]; 10 µM, relative to DMSO) | activation of wt SpsB in presence of detergents (wt SpsB [1]; 0.01% Tween, 0.001% NP-40, 0.1% CHAPS (<cmc), PK150 10 µM) | activity at 0.195 µM (wt SpsB [1]; PK150 0.195uM, replicates, read-out: wt PK150 (normalized activity)) | activity at 0.39 µM (wt SpsB [1]; PK150 0.39uM, replicates, read-out: wt PK150 (normalized activity)) | activity at 1.5625 µM (wt SpsB [1]; PK150 1.5625uM, replicates, read-out: wt PK150 (normalized activity)) | wt PK150 10 µM norm. value (wt SpsB [1]; PK150 10 µM, substrate cleavage rate normalized to DMSO (100), single biological replicates) | overactivation at higher compound concentrations (wt SpsB [1]; higher compound concentrations (Figure 3a)) | elevated activity in Q165A mutant (SpsB Q165A mutant) | overactivation compared to DMSO (wt SpsB [2]; 50 µM compound concentration, ref Le et al., Nat Chem. 2020) | overactivation of SpsB (wt SpsB [2]) | MIC (S. aureus NCTC 8325) | wt DMSO + 0.001% NP-40 norm. value (wt SpsB [1]; 0.001% NP-40, normalized to DMSO + 0.001% NP-40 (100), single biological replicates) | wt DMSO + 0.01% Tween norm. value (wt SpsB [1]; 0.01% Tween, normalized to DMSO + 0.01% Tween (100), single biological replicates) | wt DMSO + 0.1% Chaps norm. value (wt SpsB [1]; 0.1% Chaps, normalized to DMSO + 0.1% Chaps (100), single biological replicates) |
| --- | --- | --- | --- | --- | --- | --- | --- | --- | --- | --- | --- | --- | --- | --- | --- |
| O=C(Nc1ccc2c(c1)OC(F)(F)O2)Nc1ccc(Cl)c(C(F)(F)F)c1 [PK150, (4-Chloro-3-(trifluoromethyl)phenyl)-3-(2,2-difluorobenzo[d][1,3]dioxol-5-yl)urea] | 170% | 1.7 fold | Activation of wt SpsB with PK150 could still be shown for all detergents | 111% | 127% | 131% | 153.034 and 181.137 and 173.665 and 173.73 and 163.958 and 182.132 | up to 250% | 1.7 fold | 250% | up to 3 fold | 0.3 µM (≈ 0.118 µg/mL) |  |  |  |
| C[S+](C)[O-] [DMSO] |  |  |  |  |  |  |  |  |  |  |  |  | 144.811 and 130.505 | 133.237 and 138.302 | 187.838 and 176.739 |
